In assay [1] the target is rat Fatty Acid Amide Hydrolase (FAAH) (Rattus norvegicus (Rat), UniProt P97612). The experiment in a line: FAAH in vitro fluorescence assay (AAMCA hydrolysis), rat enzyme. It counts as biochemical. As to conditions: rat FAAH; for IC50: read-out: rFAAH IC50; for inhibition at 0.1 µM: read-out: rFAAH % inhibition at 100 nM. How it is done:
Material and Reagents: All reagents were purchased from Sigma-Aldrich unless specified. […] Chaperone protein groEL-groES in pGRO7 plasmid (Takara Bio Inc, Japan) was co-expressed with Fatty Acid Amide Hydrolase (FAAH) to improve solubility of the protein expressed in E coli. […] Briefly, the bacterial cultures in Luria Broth (2 L) were induced with arabinose (2 mM) and Isopropyl (β-D-1-thiogalactopyranoside, IPTG (1 mM), for 20 h at room temperature. The cultures were centrifuged at 1200×g for 10 min and the cell pellet was resuspended in 100 mL buffer containing of 20 mM NaPi (pH 7.4), 100 mM NaCl, Benzonase (500u), Aprotinin (1 μg/mL) and Leupeptin (1 μg/mL). Cells were lyzed by sonication (Amp 20%, Pulse 15 s×15, on ice) and the cell debris removed by centrifugation at 5000×g for 20 min. The supernatant was enriched via ultracentrifugation at 100,000×g for 1 h and the cell pellet was resuspended in 16 mL buffer containing 20 mM NaPi (pH 7.8), 500 mM NaCl, 1% Triton X-100. The resuspended cell extract was subjected to ultra-centrifugation at 100,000×g for 1 h and the enriched supernatant was used in the in vitro assay. All protein extraction steps were carried out on ice or at 4° C.
The assay was carried out in 200 μL volume in a 96-well black polystyrene plate (Greiner Bio-one, Germany). Each reaction consisted of human Fatty Acid Amide Hydrolase (FAAH) protein and 10 μM AAMCA in assay buffer containing 50 mM HEPES, 1 mM EDTA and 0.1% BSA, pH 7.4. The reaction was incubated with 2 μL of varying concentrations of inhibitor in DMSO (final concentration of DMSO 1%) with shaking for 1 min and monitored for increase in fluorescence in kinetic mode for 50 min. […] Rate of reaction as a function of the concentration of the inhibitor was used to determine the IC50 of the inhibitors. Data was analyzed using GraphPad Prism 5 (GraphPad Software Inc., San Diego, Calif.). The activity of the compounds for rat Fatty Acid Amide Hydrolase (FAAH) was evaluated as described above with rat Fatty Acid Amide Hydrolase (FAAH) protein and 10 μM AAMCA substrate.

Assay [2] addresses human Fatty Acid Amide Hydrolase (FAAH) (Homo sapiens (Human), UniProt O00519). As to the kind of experiment: biochemical.
Setting [3] is: human FAAH, read-out: hFAAH IC50.

Like-named read-outs stand apart in the source and are kept apart here.

As a reminder, the IC50 is the concentration that gives 50% inhibition. One may read the inhibition as the drop in the measured response relative to a control, in per cent.

Sequence of rat Fatty Acid Amide Hydrolase (FAAH) (P97612 30-579): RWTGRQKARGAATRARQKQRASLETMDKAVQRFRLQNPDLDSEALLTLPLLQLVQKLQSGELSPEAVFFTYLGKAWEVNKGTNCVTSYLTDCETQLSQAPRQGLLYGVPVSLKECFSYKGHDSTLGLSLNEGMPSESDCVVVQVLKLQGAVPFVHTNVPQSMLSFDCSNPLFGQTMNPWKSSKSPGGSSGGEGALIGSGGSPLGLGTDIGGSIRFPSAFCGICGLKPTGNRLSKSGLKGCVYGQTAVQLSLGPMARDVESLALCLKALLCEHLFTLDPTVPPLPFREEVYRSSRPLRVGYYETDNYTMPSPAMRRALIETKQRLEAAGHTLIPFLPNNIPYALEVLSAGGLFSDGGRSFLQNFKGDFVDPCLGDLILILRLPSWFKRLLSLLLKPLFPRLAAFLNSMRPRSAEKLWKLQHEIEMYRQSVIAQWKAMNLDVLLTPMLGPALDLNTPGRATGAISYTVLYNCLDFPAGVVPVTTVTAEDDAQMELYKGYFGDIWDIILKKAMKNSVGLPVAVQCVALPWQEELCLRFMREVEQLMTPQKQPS
Sequence of human Fatty Acid Amide Hydrolase (FAAH) (O00519 30-579): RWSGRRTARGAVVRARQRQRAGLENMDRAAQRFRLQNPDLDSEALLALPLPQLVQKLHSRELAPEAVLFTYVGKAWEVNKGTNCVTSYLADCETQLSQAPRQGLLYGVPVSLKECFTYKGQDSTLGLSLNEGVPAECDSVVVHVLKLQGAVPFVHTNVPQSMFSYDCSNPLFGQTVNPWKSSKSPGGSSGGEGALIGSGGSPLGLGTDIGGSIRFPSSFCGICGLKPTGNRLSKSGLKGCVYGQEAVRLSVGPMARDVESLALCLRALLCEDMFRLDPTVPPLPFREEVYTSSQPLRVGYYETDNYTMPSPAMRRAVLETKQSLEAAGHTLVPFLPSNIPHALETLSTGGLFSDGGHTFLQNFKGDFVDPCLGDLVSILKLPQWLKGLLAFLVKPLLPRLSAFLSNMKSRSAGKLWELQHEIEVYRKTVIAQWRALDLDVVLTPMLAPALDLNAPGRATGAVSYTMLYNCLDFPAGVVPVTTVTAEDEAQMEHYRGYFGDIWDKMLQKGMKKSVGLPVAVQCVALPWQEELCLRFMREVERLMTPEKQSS

Consider `Cc1nc(Oc2cccc(C=C3CCC(NC(=O)c4ccc(N)nc4)CC3)c2)ccc1C(F)(F)F` (centres unmarked) [Example 2.E-17, 6-Amino-N-[4-[[3-[[6-methyl-5-(trifluoromethyl)-2-pyridyl]oxy]phenyl]methylene]cyclohexyl]pyridine-3-carboxamide], for which the IC50 was determined as 27 nM in assay [1] and 3 nM in assay [2] (read-out: hFAAH IC50).
On to `Cc1nc(Oc2cccc(C=C3CCC(NC(=O)c4c[nH]nc4C(F)(F)F)CC3)c2)ccc1C(F)(F)F` (centres unmarked) [Example 2.E-18, N-[4-[[3-[[6-Methyl-5-(trifluoromethyl)-2-pyridyl]oxy]phenyl]methylene]cyclohexyl]-3-(trifluoromethyl)-1H-pyrazole-4-carboxamide], for which, in assay [1] (100 nM (tier I)), the inhibition at 0.1 µM was found to be 55%. Also, the IC50 in assay [2] (setting [3]) is 13 nM.
As to `O=C(NC1CCC(=Cc2cccc(Oc3ccc(C(F)(F)F)cn3)c2)CC1)c1c[nH]nc1C(F)(F)F` (single isomer, unassigned; (-)) [Example 20.A-8, (−)-3-(Trifluoromethyl)-N-[4-[[3-[[5-(trifluoromethyl)-2-pyridyl]oxy]phenyl]methylene]cyclohexyl]-1H-pyrazole-4-carboxamide], the IC50 in assay [1] was 30 nM; in assay [2] (read-out: hFAAH IC50), 1 nM.
For the compound `O=C(NC1CCC(=Cc2cccc(Oc3ccc(C(F)(F)F)cn3)c2)CC1)c1ccc(Cl)nc1` (centres unmarked) [Example 2.A-22, 6-Chloro-N-[4-[[3-[[5-(trifluoromethyl)-2-pyridyl]oxy]phenyl]methylene]cyclohexyl]pyridine-3-carboxamide], the IC50 in assay [1] was 81 nM; in assay [2] (setting [3]), 5 nM.
In the case of `O=C(NC1CCC(=Cc2cccc(Oc3ccc(C(F)(F)F)cn3)c2)CC1)c1ccccc1` (centres unmarked) [Example 2.A-34, N-[4-[[3-[[5-(Trifluoromethyl)-2-pyridyl]oxy]phenyl]methylene]cyclohexyl]benzamide], the inhibition at 1 µM in assay [1] (read-out: rFAAH % inhibition at 1 μM, 1 μM) was determined as 50%. Besides, the IC50 in assay [2] (setting [3]) was determined as 18 nM.
For the compound `Nc1ccc(C(=O)NC2CCC(=Cc3cccc(Oc4ccc(C(F)(F)F)c(C5CC5)n4)c3)CC2)cn1` (centres unmarked) [Example 2.E-19, 6-Amino-N-[4-[[3-[[6-cyclopropyl-5-(trifluoromethyl)-2-pyridyl]oxy]phenyl]methylene]cyclohexyl]pyridine-3-carboxamide], the inhibition at 0.1 µM in assay [1] (100 nM (tier I)) amounted to 40%; in assay [2] (read-out: hFAAH % inhibition at 100 nM, human FAAH, 100 nM (tier I)) it was 40%.
With `O=C(NC1CCC(=Cc2cccc(Oc3ccc(C(F)(F)F)cn3)c2)CC1)c1ccc(-c2cn[nH]c2)nc1` (centres unmarked) [Example 2.B-5, 6-(1H-Pyrazol-4-yl)-N-[4-[[3-[[5-(trifluoromethyl)-2-pyridyl]oxy]phenyl]methylene]cyclohexyl]pyridine-3-carboxamide], the results for the IC50 in assay [1] and in assay [2] (setting [3]) were 9 nM and 2 nM, respectively.
Take `CCc1ccc(C(=O)NC2CCC(=Cc3cccc(Oc4ccc(C(F)(F)F)cn4)c3)CC2)cn1` (centres unmarked) [Example 2.A-43, 6-Ethyl-N-[4-[[3-[[5-(trifluoromethyl)-2-pyridyl]oxy]phenyl]methylene]cyclohexyl]pyridine-3-carboxamide]: the IC50 in assay [1] came to 18 nM; in assay [2] (setting [3]), 4 nM.
On the same counts, the results for `O=C(NC1CCC(=Cc2cccc(Oc3ccc(C(F)(F)F)cn3)c2)CC1)c1ccc(C2CC2)nc1` (centres unmarked) [Example 2.A-42, 6-Cyclopropyl-N-[4-[[3-[[5-(trifluoromethyl)-2-pyridyl]oxy]phenyl]methylene]cyclohexyl]pyridine-3-carboxamide] are 14 nM and 13 nM.
As to `O=C(NC1CCC(=Cc2cccc(Oc3ccc(C(F)(F)F)cn3)c2)CC1)c1cccnc1F` (centres unmarked) [Example 2.A-26, 2-Fluoro-N-[4-[[3-[[5-(trifluoromethyl)-2-pyridyl]oxy]phenyl]methylene]cyclohexyl]pyridine-3-carboxamide], the 50% inhibitory concentration (IC50) amounted to 84 nM in assay [1] and 5 nM in assay [2] (read-out: hFAAH IC50).
`O=C(NC1CCC(=Cc2cccc(Oc3ccc(C(F)(F)F)cn3)c2)CC1)c1cccnn1` (single isomer, unassigned; (-)) [Example 20.A-16, (−)-N-[4-[[3-[[5-(trifluoromethyl)-2-pyridyl]oxy]phenyl]methylene]cyclohexyl]pyridazine-3-carboxamide]: the IC50 worked out at 115 nM in assay [1] and 4 nM in assay [2] (read-out: hFAAH IC50).
`O=C(O)c1cnn(-c2ccc(C(=O)NC3CCC(=Cc4cccc(Oc5ccc(C(F)(F)F)cn5)c4)CC3)cn2)c1` (centres unmarked) [Example 8.A-4, 1-[5-[[4-[[3-[[5-(Trifluoromethyl)-2-pyridyl]oxy]phenyl]methylene]cyclohexyl]carbamoyl]-2-pyridyl]pyrazole-4-carboxylic acid]: the inhibition at 0.1 µM in assay [1] (100 nM (tier I)) amounted to 15%. In assay [2] (hFAAH IC50), this compound showed an IC50 of 27 nM.
As to `Cc1[nH]ncc1C(=O)NC1CCC(=Cc2cccc(Oc3ccc(C(F)(F)F)cn3)c2)CC1` (centres unmarked) [Example 2.A-23, 5-Methyl-N-[4-[[3-[[5-(trifluoromethyl)-2-pyridyl]oxy]phenyl]methylene]cyclohexyl]-1H-pyrazole-4-carboxamide], the IC50 in assay [1] was 29 nM; in assay [2] (setting [3]) it was 5 nM.
The corresponding values for `Cc1nc(Oc2cccc(C=C3CCC(NC(=O)c4ccc(N)nc4)CC3)c2)ccc1Cl` (centres unmarked) [Example 2.E-16, 6-Amino-N-[4-[[3-[(5-chloro-6-methyl-2-pyridyl)oxy]phenyl]methylene]cyclohexyl]pyridine-3-carboxamide] are 24 nM and 3 nM.
Consider `CN(C)c1ccc(C(=O)NC2CCC(=Cc3cccc(Oc4ccc(C(F)(F)F)cn4)c3)CC2)cn1` (centres unmarked) [Example 5.1, 6-(Dimethylamino)-N-[4-[[3-[[5-(trifluoromethyl)-2-pyridyl]oxy]-phenyl]methylene]cyclohexyl]pyridine-3-carboxamide], for which the IC50 in assay [1] amounted to 13 nM; in assay [2] (read-out: hFAAH IC50), 7 nM.
Consider `O=C(NC1CCC(=Cc2cccc(Oc3ccc(C(F)(F)F)cn3)c2)CC1)c1cccnc1Cl` (centres unmarked) [Example 2.A-25, 2-Chloro-N-[4-[[3-[[5-(trifluoromethyl)-2-pyridyl]oxy]phenyl]methylene]cyclohexyl]pyridine-3-carboxamide], for which the “rFAAH % inhibition at 100 nM” value in assay [1] (100 nM (tier I)) is “No inh at 100 nM”. The IC50 in assay [2] (read-out: hFAAH IC50) worked out at 16 nM.
Turning to `O=C(NC1CCC(=Cc2cccc(Oc3ccc(C(F)(F)F)cn3)c2)CC1)c1ccc(F)nc1` (centres unmarked) [Example 2.A-14, 6-Fluoro-N-[4-[[3-[[5-(trifluoromethyl)-2-pyridyl]oxy]phenyl]methylene]cyclohexyl]pyridine-3-carboxamide], the inhibition at 0.1 µM in assay [1] (100 nM (tier I)) worked out at 25%. The IC50 in assay [2] (read-out: hFAAH IC50) is 10 nM.
On to `Nc1ccc(C(=O)NC2CCC(=Cc3cccc(Oc4ccc(C(F)(F)F)cn4)c3)CC2)cn1` (centres unmarked) [Example 2.C-1, 6-Amino-N-[4-[[3-[[5-(trifluoromethyl)-2-pyridyl]oxy]phenyl]methylene]cyclohexyl]pyridine-3-carboxamide], for which the IC50 is 31 nM in assay [1] and 5 nM in assay [2] (read-out: hFAAH IC50).
Take `O=C(NC1CCC(=Cc2cccc(Oc3ccc(C(F)(F)F)cn3)c2)CC1)c1ccc(C(F)(F)F)nc1` (centres unmarked) [Example 2.A-6, 6-(Trifluoromethyl)-N-[4-[[3-[[5-(trifluoromethyl)-2-pyridyl]oxy]phenyl]methylene]cyclohexyl]pyridine-3-carboxamide]: the inhibition at 0.1 µM in assay [1] (100 nM (tier I)) was 37%. Further, the IC50 in assay [2] (setting [3]) is 102 nM.
As for `CC(C)c1[nH]ncc1C(=O)NC1CCC(=Cc2cccc(Oc3ccc(C(F)(F)F)cn3)c2)CC1` (centres unmarked) [Example 2.A-39, 5-Isopropyl-N-[4-[[3-[[5-(trifluoromethyl)-2-pyridyl]oxy]phenyl]methylene]cyclohexyl]-1H-pyrazole-4-carboxamide], the IC50 is 30 nM in assay [1] and 63 nM in assay [2] (setting [3]).
As to `O=C(NC1CCC(=Cc2cccc(Oc3ccc(C(F)(F)F)cn3)c2)CC1)c1cncc(-n2cccn2)c1` (centres unmarked) [Example 2.B-7, 5-Pyrazol-1-yl-N-[4-[[3-[[5-(trifluoromethyl)-2-pyridyl]oxy]phenyl]methylene]cyclohexyl]pyridine-3-carboxamide], the IC50 in assay [1] worked out at 85 nM; in assay [2] (setting [3]), 6 nM.
`CC(CO)Nc1ccc(C(=O)NC2CCC(=Cc3cccc(Oc4ccc(C(F)(F)F)cn4)c3)CC2)cn1` (centres unmarked) [Example 5.A-8, 6-[(2-Hydroxy-1-methyl-ethyl)amino]-N-[4-[[3-[[5-(trifluoromethyl)-2-pyridyl]oxy]phenyl]methylene]cyclohexyl]pyridine-3-carboxamide]: the half-inhibitory concentration (IC50) worked out at 32 nM in assay [1] and 16 nM in assay [2] (setting [3]).

(Values after US9682953B2, “Amide compounds, compositions and applications thereof” (Advinus Therapeutics Limited, priority 2011, dated 2017).)
